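Test compounds were applied to cells in 96-well plates for 48 hours at 5 doses. At the TGI there is no net growth.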
Assays:
Test in all cases: NCI tumour cell line growth inhibition, 48 h
[1] = tested on: A498 renal
[2] = tested on: SF-268 CNS
[3] = tested on: 786-0 renal
[4] = tested on: MDA-MB-231 breast
[5] = tested on: IGROV1 ovarian
[6] = tested on: HOP-62 NSCLC
[7] = tested on: HT29 colon
[8] = tested on: M14 melanoma
[9] = tested on: SR leukemia
[10] = tested on: A549 NSCLC
[11] = tested on: NCI-H226 lung
[12] = tested on: K-562 leukemia
[13] = tested on: SK-OV-3 ovarian
[14] = tested on: HCT-15 colon
[15] = tested on: MOLT-4 leukemia
[16] = tested on: LOX IMVI melanoma
[17] = tested on: HL-60(TB) leukemia
[18] = tested on: SNB-75 CNS
[19] = tested on: DU-145 prostate
[20] = tested on: U251 CNS
[21] = tested on: OVCAR-8 ovarian
[22] = tested on: HCC-2998 colon
[23] = tested on: HS 578T breast
[24] = tested on: NCI-H460 lung
[25] = tested on: MALME-3M melanoma
[26] = tested on: HCT-116 colon
[27] = tested on: NCI-H23 lung
[28] = tested on: SNB-19 CNS
[29] = tested on: PC-3 prostate
[30] = tested on: KM12 colon
[31] = tested on: SK-MEL-2 melanoma
[32] = tested on: T-47D breast
[33] = tested on: RXF 393 renal
[34] = tested on: NCI-H522 lung
[35] = tested on: OVCAR-5 ovarian
[36] = tested on: MDA-N
[37] = tested on: BT-549 breast
[38] = tested on: SK-MEL-28 melanoma
[39] = tested on: OVCAR-4 ovarian
[40] = tested on: RPMI-8226 leukemia
[41] = tested on: SK-MEL-5 melanoma
[42] = tested on: COLO 205 colon
[43] = tested on: SF-295 CNS
[44] = tested on: SF-539 CNS
[45] = tested on: HOP-92 NSCLC
[46] = tested on: EKVX NSCLC
[47] = tested on: SN12C renal
[48] = tested on: SW-620 colon
[49] = tested on: CAKI-1 renal
[50] = tested on: MCF7 breast
[51] = tested on: ACHN renal
[52] = tested on: OVCAR-3 ovarian
[53] = tested on: UACC-257 melanoma
[54] = tested on: UACC-62 melanoma
[55] = tested on: NCI/ADR-RES ovarian
[56] = tested on: TK-10 renal
[57] = tested on: MDA-MB-435
[58] = tested on: UO-31 renal

In the case of `N/C(=N\Nc1ccc(C(=O)O)cc1)c1cnccn1`, the TGI [1] is reported as > 100 µM, the TGI [2] is reported as > 100 µM and the TGI [3] is reported as > 100 µM. The TGI [4] was > 100 µM, the TGI [5] was > 100 µM and the TGI [6] was > 100 µM. For the same molecule, the TGI [7] was > 100 µM, the TGI [8] was > 100 µM and the TGI [9] was > 100 µM. For the same molecule, the TGI [10] was > 100 µM, the TGI [11] was > 100 µM and the TGI [12] was > 100 µM. The TGI [13] was > 100 µM, the TGI [14] was > 100 µM and the TGI [15] was > 100 µM. The TGI [16] was > 100 µM, the TGI [17] was 0.166 µM and the TGI [18] was > 100 µM. For the same molecule, the TGI [19] was > 100 µM, the TGI [20] was > 100 µM and the TGI [21] was > 100 µM. For the same molecule, the TGI [22] was > 100 µM, the TGI [23] was > 100 µM and the TGI [24] was > 100 µM. The TGI [25] was > 100 µM, the TGI [26] was > 100 µM and the TGI [27] was > 100 µM. For the same molecule, the TGI [28] was > 100 µM, the TGI [29] was > 100 µM and the TGI [30] was > 100 µM. The TGI [31] was > 100 µM, the TGI [32] was > 100 µM and the TGI [33] was > 100 µM. The TGI [34] was > 100 µM, the TGI [35] was > 100 µM and the TGI [36] was > 100 µM. The TGI [37] was > 100 µM, the TGI [38] was > 100 µM and the TGI [39] was > 100 µM. For the same molecule, the TGI [40] was > 100 µM, the TGI [41] was > 100 µM and the TGI [42] was > 100 µM. For the same molecule, the TGI [43] was > 100 µM, the TGI [44] was > 100 µM and the TGI [45] was > 100 µM. For the same molecule, the TGI [46] was > 100 µM, the TGI [47] was > 100 µM and the TGI [48] was > 100 µM. For the same molecule, the TGI [49] was > 100 µM, the TGI [50] was > 100 µM and the TGI [51] was > 100 µM. The TGI [52] was > 100 µM, the TGI [53] was > 100 µM and the TGI [54] was > 100 µM. For the same molecule, the TGI [55] was > 100 µM, the TGI [56] was > 100 µM and the TGI [57] was > 100 µM. For the same molecule, the TGI [58] was > 100 µM.

Source: PubChem BioAssay (NCI)
